Results reported in PubChem BioAssay AID816 (SRMLSC, 2007).
Activity calls are given as the source filed them. No rule for the calls is given here.

Test system: S. cerevisiae GAL1 promoter reporter activation counterscreen
Assay: GAL1 promoter activators in yeast, artefact control for yeast lifespan extension project, S. cerevisiae (AID 816);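 also: yeast growth read after 24 h of incubation with compounds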

Row | SMILES | EC50
1 | CCCCC(CC)Cn1c2nc3ccccc3nc2c2c(=N)oc(C)nc21 (stereo not given) | > 40 µM (inactive)
2 | CCCCC(=Nc1ccccc1OC)C1=C(O)CC(c2ccccc2)CC1=O (stereo not given) | > 40 µM (inactive)
3 | CCCCCCC1C(C#N)=C(N)OC2=C1C(=O)CC(C)(C)C2 (stereo not given) | > 40 µM (inactive)
4 | CCCCC(=Nc1ccc(N)cc1)C1=C(O)C(C(=O)OC)C(C)(C)CC1=O (stereo not given) | > 40 µM (inactive)
5 | Cc1nc2ccccc2n1-c1ccccc1 | > 40 µM (inactive)
6 | COc1ccc(C(=O)Nc2ccc(OCc3ccccc3)cc2)cc1[N+](=O)[O-] | > 40 µM (inactive)
7 | Cc1ccc(NC(=O)CN2CCN(CCN=CC3=C(O)CC(c4ccccc4)CC3=O)CC2)cc1 (stereo not given) | > 40 µM (inactive)
8 | CN(c1ccccc1)c1nc2ccsc2c(=O)s1 | > 40 µM (inactive)
9 | O=C(COc1ccc([N+](=O)[O-])cc1)N(Cc1ccccc1)Cc1ccccc1 | > 40 µM (inactive)
10 | O=C1C(=C(O)c2ccccc2)C(=O)c2ccccc21 | > 40 µM (inactive)
11 | CCOC(=O)CCCNC(=O)COc1ccccc1C#N | > 40 µM (inactive)
12 | CCCc1nc2c(c(=O)c3ccccc3n2C)c(=O)n1C1CCCCCC1 | > 40 µM (inactive)
13 | COc1cc(OC)cc(-c2nc3ccccc3c(=O)n2OC(=O)c2ccc(Br)cc2)c1 | > 40 µM (inactive)
14 | CC(=C1C(=O)c2ccccc2C1=O)N1CCN(c2ccccn2)CC1 | > 40 µM (inactive)
15 | CS(=O)(=O)c1nc(-c2cccs2)cc(C(F)(F)F)n1 | > 40 µM (inactive)
16 | O=c1cc(-c2c(F)c(F)c(F)c(F)c2F)oc2c(F)c(F)c(F)c(F)c12 | > 40 µM (inactive)
17 | Cc1nn(C(C)(C)C)c(OC(=O)c2ccc(Br)o2)c1Sc1ccccc1 | > 40 µM (inactive)
18 | CC(C)n1c(-c2ccccc2F)n[nH]c1=S | > 40 µM (inactive)
19 | O=Cc1cccn1-c1sc2c(c1C(=O)O)CCCC2 | > 40 µM (inactive)
20 | O=C(NC(=S)Nc1nc2c(s1)CSc1ccccc1-2)c1ccccc1 | > 40 µM (inactive)
21 | O=C(c1ccccc1)C(CN1CCCC1)c1ccccc1 (stereo not given) | > 40 µM (inactive)
22 | O=C(Nc1nccs1)c1ccc2c(=O)n3c(nc2c1)CCCCC3 | > 40 µM (inactive)
23 | O=C(NC(=S)NNC(=O)c1ccc(Cl)cc1Cl)c1cccnc1 | > 40 µM (inactive)
24 | CCCCCCN1CC(C(=O)OCC)C(=O)C1=O (stereo not given) | > 40 µM (inactive)
25 | CCOC(=O)c1ccccc1N1C(=O)CSC1=S | > 40 µM (inactive)

Row | SMILES | EC50
26 | COc1ccccc1C(=O)Oc1ccc2c(c1)O/C(=C\c1ccncc1)C2=O | > 40 µM (inactive)
27 | O=C(Oc1ccc([N+](=O)[O-])cc1)c1ccc2ccccc2n1 | > 40 µM (inactive)
28 | O=C(c1cnn2c(C(F)F)cc(C3CC3)nc12)N1CCCC1 | > 40 µM (inactive)
29 | C=CCn1c(C)cc(C(=O)COc2ncnc3sccc23)c1C | > 40 µM (inactive)
30 | O=C(COc1ccc2ccccc2c1)Nc1cccc(C(=O)Nc2ccccc2C(=O)O)c1 | > 40 µM (inactive)
31 | O=C(c1c[nH]c(C(=O)C(Cl)(Cl)Cl)c1)c1ccccc1Cl | > 40 µM (inactive)
32 | COCCCN(C(=S)Nc1cc(Cl)cc(Cl)c1)C(C)c1ccncc1 (stereo not given) | > 40 µM (inactive)
33 | O=C(Nc1nc2ccccc2n1CCN1CCOCC1)c1cn(-c2ccccc2)nc1-c1ccccc1 | > 40 µM (inactive)
34 | O=C(N/N=C/c1ccccc1)c1c(O)c2ccccc2[nH]c1=O | > 40 µM (inactive)
35 | COc1ccc(O)c(C(=O)c2cc(C#N)c(=O)n(CC3CCCO3)c2)c1 (stereo not given) | > 40 µM (inactive)
36 | c1ccc(-c2c(-c3ccccc3)n(Cc3ccco3)c3ncnc(NCCCn4ccnc4)c23)cc1 | > 40 µM (inactive)
37 | O=C(NC(=S)NNS(=O)(=O)c1ccccc1)c1ccc([N+](=O)[O-])cc1 | > 40 µM (inactive)
38 | Cc1oc2c(c(=O)c1C)C(=O)CC(c1ccccc1)C2 (stereo not given) | > 40 µM (inactive)
39 | COC(=O)c1cc(=O)n(-c2ccccc2)c(=Nc2ccccc2)s1 | > 40 µM (inactive)
40 | Cc1ccnc(SCc2cc(=O)c(OC(=O)c3ccco3)co2)n1 | > 40 µM (inactive)
41 | CCOc1ccc(/C=C2/C(=O)NC(=O)N(CCc3ccc(F)cc3)C2=O)cc1 | > 40 µM (inactive)
42 | CCOC(=O)c1[nH]nc(C(=O)c2ccc(Br)cc2)c1O | > 40 µM (inactive)
43 | O=C1c2ccccc2-c2onc3c(Oc4ccccc4)cc(O)c1c23 | > 40 µM (inactive)
44 | O=c1cc(O)c2c(=O)n(-c3ccccc3)c3c(c2o1)CCCCC3 | > 40 µM (inactive)
45 | CC(C)Cn1c(=O)c(C(=O)Nc2cnccn2)c(O)c2ccccc21 | > 40 µM (inactive)
46 | O=C(O)CCCCCN1C(=O)/C(=C\c2ccncc2)SC1=S | > 40 µM (inactive)
47 | O=Cc1ccccc1OS(=O)(=O)c1ccccc1 | > 40 µM (inactive)
48 | CCc1c(C)c(C#N)c2nc3ccccc3n2c1Cl | > 40 µM (inactive)
49 | Cc1ccc(/C=C2/C(=O)NC(=O)N(CCc3ccc(F)cc3)C2=O)o1 | > 40 µM (inactive)
50 | COc1c(Br)cc(Br)cc1/C=N/n1c(C)nnc1C | > 40 µM (inactive)

Row | SMILES | EC50
51 | CCc1nnc(N2C(=O)c3ccc(Oc4ccc([N+](=O)[O-])cc4)cc3C2=O)s1 | > 40 µM (inactive)
52 | COC(=O)c1cc(OC)c(OC)cc1NC(=S)Nc1cccc(C(C)=O)c1 | > 40 µM (inactive)
53 | CCNCCNC(=O)c1c(O)c2cccc3c2n(c1=O)CCC3 | > 40 µM (inactive)
54 | O=C1/C(=C/c2cccnc2)CCC/C1=C\c1cccnc1 | > 40 µM (inactive)
55 | Cc1ccc(NC(=O)C2C(=O)N(C)c3ccccc32)cc1 (stereo not given) | > 40 µM (inactive)
56 | COC(=O)C1=C(C(=O)OC)C(c2ccccc2O)c2sc(=O)[nH]c2S1 (stereo not given) | > 40 µM (inactive)
57 | Cc1cc(NS(=O)(=O)c2ccc(CC(C)C)cc2)no1 | > 40 µM (inactive)
58 | O=C1c2ccccc2C(Nc2ccc3c(c2)OCCO3)N1c1ccccn1 (stereo not given) | > 40 µM (inactive)
59 | CC(C)C(C(=O)O)N1C(=O)/C(=C/c2cccn2C)SC1=S (stereo not given) | > 40 µM (inactive)
60 | COc1ccccc1CN(Cc1nc2ccccc2c(=O)[nH]1)C(=O)Nc1cccc(C)c1 | > 40 µM (inactive)
61 | O=C1CC(c2ccccc2)CC(O)=C1C=NCCN1CCOCC1 (stereo not given) | > 40 µM (inactive)
62 | O=C(NC(=S)NNC(=O)c1ccccc1O)c1ccco1 | > 40 µM (inactive)
63 | CCOc1ccc(N=Cc2c(O)c3ccccc3oc2=O)cc1 | > 40 µM (inactive)
64 | CC(C)c1ccc(C2=C(O)c3ccccc3C(=O)C2=O)cc1 | > 40 µM (inactive)
65 | COC(=O)CC1=NN(c2ccccc2)C(=O)/C1=C\c1ccc(OC)cc1 | > 40 µM (inactive)
66 | Cc1cc(C)c(NC(=O)/C(=C/c2ccccc2)c2ccccc2)c(C)c1 | > 40 µM (inactive)
67 | Nc1sc(-c2ccccc2)cc1C(=O)O | > 40 µM (inactive)
68 | CCCCCC(=O)N1CCN(CCN=CC2=C(O)CC(c3ccc(OC)c(OC)c3)CC2=O)CC1 (stereo not given) | > 40 µM (inactive)
69 | CCn1c(/C=N/c2nc3ccccc3n2C)nc2ccccc21 | > 40 µM (inactive)
70 | CCN(CCO)C(=O)C12CCC(C)(C(=O)C1)C2(C)C (stereo not given) | > 40 µM (inactive)
71 | CCc1ccc2nc(N3C(=O)C(O)=C(C(=O)c4ccco4)C3c3cccs3)sc2c1 (stereo not given) | > 40 µM (inactive)
72 | CN(Cc1c(O)ccc2c1oc(=O)c1ccccc12)C1CCCCC1 | > 40 µM (inactive)
73 | CC(c1ccco1)N(C(=O)c1ccccc1NS(=O)(=O)c1cc([N+](=O)[O-])ccc1Cl)c1ccccn1 (stereo not given) | > 40 µM (inactive)
74 | CCSc1nnc(NC(=O)CSc2nc(C)cc(C)n2)s1 | > 40 µM (inactive)
75 | O=C1C(Cl)=C(Nc2ccccc2O)C(=O)N1CCc1ccccc1 | > 40 µM (inactive)

Row | SMILES | EC50
76 | Cc1cc(C=C2C(=O)N(C)C(=S)N(C)C2=O)c(C)n1-c1cccnc1 | > 40 µM (inactive)
77 | CC1(C)CC(=O)C2=C(C1)OC1=C(C(=O)CC(C)(C)C1)C2c1ccc(O)cc1O | > 40 µM (inactive)
78 | O=S(=O)(Nc1nc2ccccc2nc1Cl)c1ccc2ccccc2c1 | > 40 µM (inactive)
79 | CCCC(=O)Nc1ccccc1Sc1ncnc2scc(-c3ccccc3)c12 | > 40 µM (inactive)
80 | CCOC(=O)c1c(C)oc2c1c(C(c1cccnc1)N1CCCCC1)c(O)c1ccccc12 (stereo not given) | > 40 µM (inactive)
81 | CC(=O)Nc1ccc(C(=O)CSc2nnc(-c3ccc(O)cc3)n2CC2CCCO2)cc1 (stereo not given) | > 40 µM (inactive)
82 | COCCN(CCOC)S(=O)(=O)c1ccc(C(=O)Nc2sc3c(c2C(N)=O)CCCCC3)cc1 | > 40 µM (inactive)
83 | CCOc1ccc(OCC(=O)c2c(O)c3ccccc3oc2=O)cc1 | > 40 µM (inactive)
84 | O=C1NC(=O)N(CCC2=CCCCC2)C(=O)/C1=C\c1cccs1 | > 40 µM (inactive)
85 | Cc1ccc(-c2nc3ccc(Cl)cc3n2OC(=O)N(C)C)cc1 | > 40 µM (inactive)
86 | O=C(NNC1=Nc2cccc3cccc1c23)c1ccccc1Br | > 40 µM (inactive)
87 | Cc1ccc(N(C(=O)CS(=O)CC(=O)Nc2ccc(F)cc2)C(C(=O)NC2CCCCC2)c2ccco2)cc1 (stereo not given) | > 40 µM (inactive)
88 | Cn1c(SCC(=O)N2CCCc3ccccc32)nnc1-c1c[nH]c2ccccc12 | > 40 µM (inactive)
89 | Fc1cccc2sc(Nc3nnc(-c4ccco4)o3)nc12 | > 40 µM (inactive)
90 | Cc1ccc(-c2ccc(/C=C3\C(=O)ON=C3c3ccccc3)o2)c([N+](=O)[O-])c1 | > 40 µM (inactive)
91 | O=C1OC2(CCCCC2)OC(=O)C1=CNc1nc2ccccc2s1 | > 40 µM (inactive)
92 | CCn1c(=O)c2c(O)cc(=O)oc2c2ccccc21 | > 40 µM (inactive)
93 | COc1ccc(CNC(=O)c2c(O)c3cccc4c3n(c2=O)CCC4)cc1 | > 40 µM (inactive)
94 | CN1CCN(C(=S)Nc2cc([N+](=O)[O-])ccc2Cl)CC1 | > 40 µM (inactive)
95 | CN(C)/C=C(/C(=O)c1ccc(Cl)cc1Cl)S(=O)(=O)c1ccccc1 | > 40 µM (inactive)
96 | O=C1c2ccccc2C(=O)N1OCc1ccccc1 | > 40 µM (inactive)
97 | CCOC(=O)CS(=O)(=O)c1nc(-c2ccc(F)cc2)cc(C(F)(F)F)n1 | > 40 µM (inactive)
98 | CCCCCC1CC1C(=O)N/N=C/c1ccc(N(C)C)cc1 (stereo not given) | > 40 µM (inactive)
99 | Cc1cc(C)nc(SCc2cc(=O)c(OC(=O)c3ccc(Br)o3)co2)n1 | > 40 µM (inactive)
100 | O=C1CC(c2ccccc2)CC(O)=C1C=NCCN1CCN(C(=O)Nc2ccccc2)CC1 (stereo not given) | > 40 µM (inactive)
